According to article PMC2248166, “Quantitative peptide binding motifs for 19 human and mouse MHC class I molecules derived using positional scanning combinatorial peptide libraries” (Immunome Research, 2008):

Legend:
HLA B*1501 = HLA B*1501 (Homo sapiens, UniProt P01889, A329T/A93T/A95T/C349S/D201E/D98Y/E187L/E204Q/E69M/E70A/K202T/N87E/Q94N/R155S/R180W/S121R/S35A/S48A/V306I/V36M/Y140S/Y91S); experiment: biochemical; assay type: binding
HLA B*0702 = HLA B*0702 (Homo sapiens, UniProt P01889); assay type: binding; conditions: positional scanning combinatorial 9-mer library; normalized to 1.0 for the best residue at each position
HLA A*3201 = HLA A*3201 (Homo sapiens, UniProt P04439, A270S/D101S/D185E/E176V/E277Q/F133L/G103R/G107R/G231S/H175R/I121M/I218V/I322F/K168Q/L105A/L300P/L318F/M331R/P208A/P217A/Q94H/R106L/R138Q/S129P/T104I/T323A/T345S/V100E/V321M/V358M); experiment: biochemical; assay type: binding
HLA A*6802 = HLA A*6802 (Homo sapiens, UniProt P04439, A269V/D140Y/D185E/E176V/E277Q/E87N/F33Y/G231S/I121R/I166T/I218V/L180W/L300P/L318F/N151K/P208A/P217A/Q86R/R138H/R169H/S129P/T345S/V36M); assay type: binding
H-2 D^d = H-2 D^d (Mus musculus, UniProt P01900); assay type: binding
H-2 D^d, sequence (P01900 whole entry, looked up): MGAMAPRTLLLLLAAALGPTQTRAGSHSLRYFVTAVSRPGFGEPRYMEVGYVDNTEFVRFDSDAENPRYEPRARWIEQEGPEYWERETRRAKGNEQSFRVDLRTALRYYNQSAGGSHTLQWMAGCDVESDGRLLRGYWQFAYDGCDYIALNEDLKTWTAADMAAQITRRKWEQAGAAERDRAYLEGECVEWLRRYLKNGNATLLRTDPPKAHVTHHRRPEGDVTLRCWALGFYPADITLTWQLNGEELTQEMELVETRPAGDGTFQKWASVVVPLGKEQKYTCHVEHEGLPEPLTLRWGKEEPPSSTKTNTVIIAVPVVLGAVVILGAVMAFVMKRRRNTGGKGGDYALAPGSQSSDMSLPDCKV

H-2 D^b = H-2 D^b (Mus musculus, UniProt P01899); assay type: binding
H-2 D^b, sequence (P01887 21-119): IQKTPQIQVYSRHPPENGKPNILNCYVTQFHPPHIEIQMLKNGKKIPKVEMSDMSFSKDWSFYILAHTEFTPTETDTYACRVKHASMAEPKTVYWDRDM
H-2 D^b, sequence (P01899 25-362): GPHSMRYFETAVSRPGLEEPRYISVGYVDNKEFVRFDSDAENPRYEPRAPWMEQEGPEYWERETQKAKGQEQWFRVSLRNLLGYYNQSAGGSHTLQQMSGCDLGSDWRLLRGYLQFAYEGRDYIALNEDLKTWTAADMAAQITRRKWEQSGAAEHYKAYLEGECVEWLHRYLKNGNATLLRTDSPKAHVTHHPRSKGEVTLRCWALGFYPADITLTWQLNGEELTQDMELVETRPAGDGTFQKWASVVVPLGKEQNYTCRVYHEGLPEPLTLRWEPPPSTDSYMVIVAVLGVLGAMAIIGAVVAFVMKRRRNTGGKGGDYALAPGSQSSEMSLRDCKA

HLA B*5101 = HLA B*5101 (Homo sapiens, UniProt P01889, A329T/A93T/A95T/C349S/D138N/D201E/D98Y/E187L/E204Q/E69T/G107R/I218V/K202T/L105A/L119W/N104I/Q94N/R106L/R155S/R180L/S101N/S121T/S35A/S48A/V306I/V36M/Y195H/Y91F); assay type: binding
H-2 K^k = H-2 K^k (Mus musculus, UniProt P04223); assay type: binding
H-2 K^k, sequence (P01887 21-119): as the sequence (P01887 21-119) above
H-2 K^k, sequence (P04223 22-369): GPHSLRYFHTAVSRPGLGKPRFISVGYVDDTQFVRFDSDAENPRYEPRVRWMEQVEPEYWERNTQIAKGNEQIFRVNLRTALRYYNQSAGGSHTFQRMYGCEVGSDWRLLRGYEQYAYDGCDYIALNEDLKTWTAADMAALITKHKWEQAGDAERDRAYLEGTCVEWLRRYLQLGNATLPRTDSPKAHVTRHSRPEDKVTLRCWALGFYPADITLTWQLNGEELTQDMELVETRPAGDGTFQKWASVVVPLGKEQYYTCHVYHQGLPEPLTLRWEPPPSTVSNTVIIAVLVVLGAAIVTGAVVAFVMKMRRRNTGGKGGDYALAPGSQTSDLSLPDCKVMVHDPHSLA

HLA B*1503 = HLA B*1503 (Homo sapiens, UniProt P01889, A329T/A93T/A95T/C349S/D201E/D98Y/E187L/E204Q/K202T/N87E/Q94N/R155S/R180L/S121R/S35A/V306I/V36M/Y140S/Y91S); experiment: biochemical; assay type: binding
HLA B*5301 = HLA B*5301 (Homo sapiens, UniProt P01889, A329T/A93T/A95T/C349S/D201E/D98Y/E176V/E187L/E204Q/E69T/G107R/I218V/K202T/L105A/L119I/N104I/Q94N/R106L/R155S/R180L/S101N/S121R/S35A/S48A/T118I/V127L/V306I/V36M/Y140S/Y91F); assay type: binding
HLA A*0201 = HLA A*0201 (Homo sapiens, UniProt P04439, D140Y/D185E/D98H/E176V/E277Q/G131W/G231S/I119V/I121R/I166T/I218V/L300P/L318F/N151K/N90K/P208A/P217A/Q86G/Q94H/R138H/R169H/T345S); conditions: positional scanning combinatorial 9-mer library; normalized to 1.0 for the best residue at each position
HLA B*5802 = HLA B*5802 (Homo sapiens, UniProt P01889, A329T/C349S/D201E/D98Y/E176V/E187L/E204Q/E69T/G107R/I218V/I90N/K202T/L105A/N104I/N87E/Q89R/Q94S/R106L/R155S/R180L/R86G/S101N/S121W/S35A/S48A/V127L/V306I/V36M/Y140S/Y91M); assay type: binding
HLA B*5801 = HLA B*5801 (Homo sapiens, UniProt P01889, A329T/C349S/D201E/D98Y/E176V/E187L/E204Q/E69T/G107R/I218V/I90N/K202T/L105A/L119I/N104I/N87E/Q89R/Q94S/R106L/R155S/R180L/R86G/S101N/S121R/S35A/S48A/T118I/V127L/V306I/V36M/Y140S/Y91M); assay type: binding
HLA B*2705 = HLA B*2705 (Homo sapiens, UniProt P01889, D138H/D201E/E176V/E204Q/G107R/H137Y/K202T/N104T/N87E/Q56L/Q94K/R106L/R155S/R180L/S101D/S121N/S48T/Y140D/Y33H/Y91C); assay type: binding; conditions: positional scanning combinatorial 9-mer library; normalized to 1.0 for the best residue at each position
HLA B*0801 = HLA B*0801 (Homo sapiens, UniProt P01889, A93T/A95T/D138N/E176V/E187T/K202T/Q94N/R180D/S35A/V36M/Y33D/Y91F); experiment: biochemical; assay type: binding
HLA A*3001 = HLA A*3001 (Homo sapiens, UniProt P04439, D140H/D185E/E176W/F33S/G80R/H175R/K168Q/R138E/R41S); experiment: biochemical; assay type: binding
HLA B*3501 = HLA B*3501 (Homo sapiens, UniProt P01889, A329T/A93T/A95T/C349S/D201E/D98Y/E176V/E187L/E204Q/E69T/I218V/K202T/L119I/Q94N/R155S/R180L/S121R/S35A/S48A/T118I/V127L/V306I/V36M/Y140S/Y91F); assay type: binding
HLA B*5401 = HLA B*5401 (Homo sapiens, UniProt P01889, A329T/C349S/D138N/D201E/E176V/E187T/E204Q/E69G/I76V/K202T/L119W/R155S/R180L/S121T/S35A/S48A/V127L/V306I/V36M/Y140L); assay type: binding

Row | Sequence | Normalized average relative binding affinity (ARB), HLA B*1501 (HLA B*1501) | Normalized average relative binding affinity (ARB), HLA B*0702 (HLA B*0702) | Normalized average relative binding affinity (ARB), HLA A*3201 (HLA A*3201) | Normalized average relative binding affinity (ARB), HLA A*6802 (HLA A*6802) | Normalized average relative binding affinity (ARB), H-2 Dd (H-2 D^d) | Normalized average relative binding affinity (ARB), H-2 Db (H-2 D^b) | Normalized average relative binding affinity (ARB), HLA B*5101 (HLA B*5101) | Normalized average relative binding affinity (ARB), H-2 Kk (H-2 K^k) | Normalized average relative binding affinity (ARB), HLA B*1503 (HLA B*1503) | Normalized average relative binding affinity (ARB), HLA B*5301 (HLA B*5301) | Normalized average relative binding affinity (ARB), HLA A*0201 (HLA A*0201) | Normalized average relative binding affinity (ARB), HLA B*5802 (HLA B*5802) | Normalized average relative binding affinity (ARB), HLA B*5801 (HLA B*5801) | Normalized average relative binding affinity (ARB), HLA B*2705 (HLA B*2705) | Normalized average relative binding affinity (ARB), HLA B*0801 (HLA B*0801) | Normalized average relative binding affinity (ARB), HLA A*3001 (HLA A*3001) | Normalized average relative binding affinity (ARB), HLA B*3501 (HLA B*3501) | Normalized average relative binding affinity (ARB), HLA B*5401 (HLA B*5401)
1 | FXXXXXXXX [3064.0005] | 0.59 | 0.21 | 0.090 | 0.53 | 0.34 | 1.0 | 0.25 | 1.0 | 1.0 | 0.14 | 1.0 | 0.081 | 0.34 | 0.60 | 0.57 | 0.035 | 0.50 | 0.74
2 | GXXXXXXXX [3064.0006] | 0.43 | 0.15 | 0.14 | 0.022 | 0.15 | 0.096 | 0.028 | 0.14 | 0.063 | 0.0086 | 0.089 | 0.14 | 0.069 | 0.60 | 0.088 | 0.11 | 0.030 | 0.0071
3 | HXXXXXXXX [3064.0007] | 0.59 | 0.80 | 0.38 | 0.53 | 0.21 | 0.17 | 0.15 | 0.91 | 0.20 | 1.0 | 0.0048 | 0.026 | 0.43 | 0.49 | 0.18 | 0.49 | 1.0 | 0.34
4 | IXXXXXXXX [3064.0008] | 1.0 | 0.42 | 0.47 | 0.076 | 0.39 | 0.13 | 0.23 | 0.27 | 0.51 | 0.15 | 0.12 | 0.17 | 0.35 | 0.22 | 0.068 | 0.11 | 0.30 | 0.27
